Patent US6586443B1, “Method of treating multiple sclerosis” (priority 1986, dated 2003)

Experiments:
[1] = recent press reports; cited from earlier work
[2] = case report: low dose naltrexone in multiple sclerosis; type: in vivo, human; conditions: person
Procedure: This gradually cleared over a two month period. […] This gradually cleared. An attack of transverse myelitis at the lower thoracic level occurred four months later, their third attack in eight months. As they were recovering from this attack, they started on naltrexone, 1.75 mg per day at bedtime. […] This attack involved weakness and numbness of the left arm.

[3] = tested on: Mu and Delta opiate receptor sites; conditions: generally rated; cited from earlier work
[4] = tested on: genital herpes (herpes simplex virus (HSV) type No. 2); assay: case report: low dose naltrexone in chronic genital herpes; type: in vivo, human
Procedure: A person has had genital herpes for 13 years, experiencing a severe painful attack with several lesions for the 4-5 days preceding each menstrual period during most of that time. They were started on low dose naltrexone (1.75 mg per day at bedtime). […] Ten months later the dosage was increased to 2.75 mg/day also taken at bedtime. In the entire period of naltrexone treatment covering a number of months, they have had only two attacks each occurring 2-3 weeks after they ran out of naltrexone and interrupted the treatment temporarily.

Row | Compound | effectiveness in treating CFS compared with placebo [1] | multiple sclerosis attacks after start of naltrexone ([2]; 1.75 mg per day at bedtime, three attacks in eight months before treatment) | multiple sclerosis attacks after resuming naltrexone ([2]; low dose naltrexone resumed after voluntary discontinuation) | Mu blocking action relative to Delta blocking action [3] | number of genital herpes attacks in the entire period of naltrexone treatment ([4]; 1.75 then 2.75 mg/day at bedtime, each attack 2-3 weeks after treatment was temporarily interrupted) | effect on genital herpes attacks after start of treatment ([4]; person, 1.75 mg per day at bedtime, oral)
1 | Nc1nc2c(ncn2COCCO)c(=O)[nH]1 [acyclovir] | no more effective than a placebo | – | – | – | – | –
2 | O=C1CC[C@@]2(O)[C@H]3Cc4ccc(O)c5c4[C@@]2(CCN3CC2CC2)[C@H]1O5 [naltrexone] | – | only subsequent attack in the intervening period of many months occurred one year later, three weeks after they voluntarily discontinued naltrexone | no attacks since | about ten | two | attacks immediately stopped
